Measured values from ChEMBL document CHEMBL1201861, “Genomics of Drug Sensitity in Cancer screening data, Wellcome Trust Sanger Institute”.

Columns and labels:
Test in all cases: cells
SK-N-AS = format: functional, cell-based, Homo sapiens; conditions: Homo sapiens, SK-N-AS
Description: SANGER: Inhibition of human SK-N-AS cell growth in a cell viability assay.

CWR22R = format: functional, cell-based, Homo sapiens; conditions: Homo sapiens, 22Rv1
Description: SANGER: Inhibition of human 22RV1 cell growth in a cell viability assay.

SK-N-DZ = format: functional, cell-based, Homo sapiens; conditions: Homo sapiens, SK-N-DZ
Description: SANGER: Inhibition of human SK-N-DZ cell growth in a cell viability assay.

DMS-79 = format: functional, cell-based; conditions: Homo sapiens
Description: SANGER: Inhibition of human DMS-79 cell growth in a cell viability assay.

SW872 = format: functional, cell-based, Homo sapiens; conditions: Homo sapiens, SW872
Description: SANGER: Inhibition of human SW872 cell growth in a cell viability assay.

COLO-684 = format: functional, cell-based; conditions: Homo sapiens
Description: SANGER: Inhibition of human COLO-684 cell growth in a cell viability assay.

BXPC-3 = format: functional, cell-based, Homo sapiens; conditions: Homo sapiens, BXPC-3
Description: SANGER: Inhibition of human BxPC-3 cell growth in a cell viability assay.

DJM-1 = format: functional, cell-based, Homo sapiens; conditions: Homo sapiens, DJM-1
Description: SANGER: Inhibition of human DJM-1 cell growth in a cell viability assay.

NCI-H2087 = format: functional, cell-based, Homo sapiens; conditions: Homo sapiens, NCI-H2087
Description: SANGER: Inhibition of human NCI-H2087 cell growth in a cell viability assay.

CP50-MEL-B = format: functional, cell-based, Homo sapiens; conditions: Homo sapiens, CP50-MEL-B
Description: SANGER: Inhibition of human CP50-MEL-B cell growth in a cell viability assay.

HEC-1 = format: functional, cell-based, Homo sapiens; conditions: Homo sapiens, HEC-1
Description: SANGER: Inhibition of human HEC-1 cell growth in a cell viability assay.

J-RT3-T3-5 = format: functional, cell-based; conditions: Homo sapiens
Description: SANGER: Inhibition of human J-RT3-T3-5 cell growth in a cell viability assay.

OCUB-M = format: functional, cell-based, Homo sapiens; conditions: Homo sapiens, OCUB-M
Description: SANGER: Inhibition of human OCUB-M cell growth in a cell viability assay.

TGBC24TKB = format: functional, cell-based, Homo sapiens; conditions: Homo sapiens, TGBC24TKB
Description: SANGER: Inhibition of human TGBC24TKB cell growth in a cell viability assay.

K562 = format: functional, cell-based; conditions: Homo sapiens
Description: SANGER: Inhibition of human K-562 cell growth in a cell viability assay.

KNS-42 = format: functional, cell-based, Homo sapiens; conditions: Homo sapiens, KNS-42
Description: SANGER: Inhibition of human KNS-42 cell growth in a cell viability assay.

D-502MG = format: functional, cell-based, Homo sapiens; conditions: Homo sapiens, D-502MG
Description: SANGER: Inhibition of human D-502MG cell growth in a cell viability assay.

Ramos-2G6-4C10 = format: functional, cell-based; conditions: Homo sapiens
Description: SANGER: Inhibition of human Ramos-2G6-4C10 cell growth in a cell viability assay.

S-117 = format: functional, cell-based, Homo sapiens; conditions: Homo sapiens, S-117
Description: SANGER: Inhibition of human S-117 cell growth in a cell viability assay.

SNU1 = format: functional, cell-based; conditions: Homo sapiens
Description: SANGER: Inhibition of human NCI-SNU-1 cell growth in a cell viability assay.

BB30-HNC = format: functional, cell-based, Homo sapiens; conditions: Homo sapiens, BB30-HNC
Description: SANGER: Inhibition of human BB30-HNC cell growth in a cell viability assay.

NCI-H2452 = format: functional, cell-based, Homo sapiens; conditions: Homo sapiens, NCI-H2452
Description: SANGER: Inhibition of human NCI-H2452 cell growth in a cell viability assay.

HO-1-N-1 = format: functional, cell-based, Homo sapiens; conditions: Homo sapiens, HO-1-N-1
Description: SANGER: Inhibition of human HO-1-N-1 cell growth in a cell viability assay.

EM-2 = format: functional, cell-based; conditions: Homo sapiens
Description: SANGER: Inhibition of human EM-2 cell growth in a cell viability assay.

LXF-289 cell line = format: functional, cell-based, Homo sapiens; conditions: Homo sapiens, LXF-289
Description: SANGER: Inhibition of human LXF-289 cell growth in a cell viability assay.

IGROV-1 = format: functional, cell-based, Homo sapiens; conditions: Homo sapiens, IGROV-1
Description: SANGER: Inhibition of human IGROV-1 cell growth in a cell viability assay.

SW1463 = format: functional, cell-based, Homo sapiens; conditions: Homo sapiens, SW1463
Description: SANGER: Inhibition of human SW1463 cell growth in a cell viability assay.

HOS = format: functional, cell-based, Homo sapiens; conditions: Homo sapiens, HOS
Description: SANGER: Inhibition of human HOS cell growth in a cell viability assay.

CAL-51 = format: functional, cell-based, Homo sapiens; conditions: Homo sapiens, CAL-51
Description: SANGER: Inhibition of human CAL-51 cell growth in a cell viability assay.

KP-4 = format: functional, cell-based, Homo sapiens; conditions: Homo sapiens, KP-4; read-out: IC50
Description: SANGER: Inhibition of human KP-4 cell growth in a cell viability assay.

NCI-H2126 = format: functional, cell-based, Homo sapiens; conditions: Homo sapiens, NCI-H2126
Description: SANGER: Inhibition of human NCI-H2126 cell growth in a cell viability assay.

RCM-1 = format: functional, cell-based, Homo sapiens; conditions: Homo sapiens, RCM-1
Description: SANGER: Inhibition of human RCM-1 cell growth in a cell viability assay.

KYSE-70 cell line = format: functional, cell-based, Homo sapiens; conditions: Homo sapiens, KYSE-70
Description: SANGER: Inhibition of human KYSE-70 cell growth in a cell viability assay.

MDA-MB-415 = format: functional, cell-based; conditions: Homo sapiens
UMC-11 = format: functional, cell-based, Homo sapiens; conditions: Homo sapiens, UMC-11
Description: SANGER: Inhibition of human UMC-11 cell growth in a cell viability assay.

NCI-H650 = format: functional, cell-based, Homo sapiens; conditions: Homo sapiens, NCI-H650
Description: SANGER: Inhibition of human NCI-H650 cell growth in a cell viability assay.

SK-MEL-24 = format: functional, cell-based; conditions: Homo sapiens
Description: SANGER: Inhibition of human SK-MEL-24 cell growth in a cell viability assay.

HCC1395 = format: functional, cell-based, Homo sapiens; conditions: Homo sapiens, HCC1395
Description: SANGER: Inhibition of human HCC1395 cell growth in a cell viability assay.

C-33-A = format: functional, cell-based, Homo sapiens; conditions: Homo sapiens, C-33-A
Description: SANGER: Inhibition of human C-33-A cell growth in a cell viability assay.

A2780 = format: functional, cell-based, Homo sapiens; conditions: Homo sapiens, A2780
Description: SANGER: Inhibition of human A2780 cell growth in a cell viability assay.

HT-1376 = format: functional, cell-based, Homo sapiens; conditions: Homo sapiens, HT-1376
Description: SANGER: Inhibition of human HT-1376 cell growth in a cell viability assay.

L-363 = format: functional, cell-based; conditions: Homo sapiens
Description: SANGER: Inhibition of human L-363 cell growth in a cell viability assay.

AU565 = format: functional, cell-based, Homo sapiens; conditions: Homo sapiens, AU565
Description: SANGER: Inhibition of human AU565 cell growth in a cell viability assay.

DSH1 = format: functional, cell-based, Homo sapiens; conditions: Homo sapiens, DSH1
Description: SANGER: Inhibition of human DSH1 cell growth in a cell viability assay.

GAMG = format: functional, cell-based, Homo sapiens; conditions: Homo sapiens, GAMG
Description: SANGER: Inhibition of human GAMG cell growth in a cell viability assay.

C3A = format: functional, cell-based, Homo sapiens; conditions: Homo sapiens, C3A
Description: SANGER: Inhibition of human C3A cell growth in a cell viability assay.

MMAC-SF = format: functional, cell-based, Homo sapiens; conditions: Homo sapiens, MMAC-SF
Description: SANGER: Inhibition of human MMAC-SF cell growth in a cell viability assay.

A3-KAW = format: functional, cell-based; conditions: Homo sapiens
Description: SANGER: Inhibition of human A3-KAW cell growth in a cell viability assay.

RPMI-2650 = format: functional, cell-based, Homo sapiens; conditions: Homo sapiens, RPMI-2650
Description: SANGER: Inhibition of human RPMI-2650 cell growth in a cell viability assay.

MV4-11 = format: functional, cell-based, MV-4-11; conditions: Homo sapiens
Description: SANGER: Inhibition of human MV-4-11 cell growth in a cell viability assay.

OCI-AML2 = format: functional, cell-based; conditions: Homo sapiens
Description: SANGER: Inhibition of human OCI-AML2 cell growth in a cell viability assay.

## C=CCc1cccc(/C=N/NC(=O)CN2CCN(Cc3ccccc3)CC2)c1O [PAC-1]
SK-N-AS
  IC50: > 2560 nM
CWR22R
  IC50: > 2560 nM
SK-N-DZ
  IC50: > 2560 nM
DMS-79
  IC50: > 2560 nM
SW872
  IC50: > 2560 nM
COLO-684
  IC50: > 2560 nM
BXPC-3
  IC50: 2090 nM
DJM-1
  IC50: > 2560 nM
NCI-H2087
  IC50: > 2560 nM
CP50-MEL-B
  IC50: > 2560 nM
HEC-1
  IC50: > 2560 nM
J-RT3-T3-5
  IC50: 1200 nM
OCUB-M
  IC50: > 2560 nM
TGBC24TKB
  IC50: > 2560 nM
K562
  IC50: > 2560 nM
KNS-42
  IC50: > 2560 nM
D-502MG
  IC50: > 2560 nM
Ramos-2G6-4C10
  IC50: > 2560 nM
S-117
  IC50: > 2560 nM
SNU1
  IC50: > 2560 nM
BB30-HNC
  IC50: > 2560 nM
NCI-H2452
  IC50: > 2560 nM
HO-1-N-1
  IC50: > 2560 nM
EM-2
  IC50: > 2560 nM
LXF-289 cell line
  IC50: > 2560 nM
IGROV-1
  IC50: 1340 nM
SW1463
  IC50: > 2560 nM
HOS
  IC50: > 2560 nM
CAL-51
  IC50: > 2560 nM
KP-4
  IC50: > 2560 nM
NCI-H2126
  IC50: > 2560 nM
RCM-1
  IC50: > 2560 nM
KYSE-70 cell line
  IC50: > 2560 nM
MDA-MB-415
  IC50: > 2560 nM
UMC-11
  IC50: > 2560 nM
NCI-H650
  IC50: > 2560 nM
SK-MEL-24
  IC50: > 2560 nM
HCC1395
  IC50: > 2560 nM
C-33-A
  IC50: > 2560 nM
A2780
  IC50: > 2560 nM
HT-1376
  IC50: > 2560 nM
L-363
  IC50: > 2560 nM
AU565
  IC50: > 2560 nM
DSH1
  IC50: > 2560 nM
GAMG
  IC50: > 2560 nM
C3A
  IC50: > 2560 nM
MMAC-SF
  IC50: > 2560 nM
A3-KAW
  IC50: 1930 nM
RPMI-2650
  IC50: > 2560 nM
MV4-11
  IC50: > 2560 nM
OCI-AML2
  IC50: > 2560 nM

## Cc1ccc(Nc2nccc(N(C)c3ccc4c(C)n(C)nc4c3)n2)cc1S(N)(=O)=O [PAZOPANIB]
SK-N-AS
  IC50: > 8000 nM
CWR22R
  IC50: > 8000 nM
SK-N-DZ
  IC50: 2020 nM
DMS-79
  IC50: > 8000 nM
SW872
  IC50: > 8000 nM
COLO-684
  IC50: > 8000 nM
BXPC-3
  IC50: > 8000 nM
DJM-1
  IC50: > 8000 nM
NCI-H2087
  IC50: > 8000 nM
CP50-MEL-B
  IC50: > 8000 nM
HEC-1
  IC50: > 8000 nM
J-RT3-T3-5
  IC50: > 8000 nM
OCUB-M
  IC50: 3310 nM
TGBC24TKB
  IC50: > 8000 nM
K562
  IC50: > 8000 nM
KNS-42
  IC50: > 8000 nM
D-502MG
  IC50: 7780 nM
Ramos-2G6-4C10
  IC50: > 8000 nM
S-117
  IC50: 7580 nM
SNU1
  IC50: > 8000 nM
BB30-HNC
  IC50: > 8000 nM
NCI-H2452
  IC50: > 8000 nM
HO-1-N-1
  IC50: > 8000 nM
EM-2
  IC50: > 8000 nM
LXF-289 cell line
  IC50: > 8000 nM
IGROV-1
  IC50: 3250 nM
SW1463
  IC50: > 8000 nM
HOS
  IC50: > 8000 nM
CAL-51
  IC50: > 8000 nM
KP-4
  IC50: > 8000 nM
NCI-H2126
  IC50: > 8000 nM
RCM-1
  IC50: > 8000 nM
KYSE-70 cell line
  IC50: > 8000 nM
MDA-MB-415
  IC50: > 8000 nM
UMC-11
  IC50: > 8000 nM
NCI-H650
  IC50: > 8000 nM
SK-MEL-24
  IC50: > 8000 nM
HCC1395
  IC50: 2580 nM
C-33-A
  IC50: > 8000 nM
A2780
  IC50: > 8000 nM
HT-1376
  IC50: > 8000 nM
L-363
  IC50: > 8000 nM
AU565
  IC50: > 8000 nM
DSH1
  IC50: > 8000 nM
GAMG
  IC50: 6180 nM
C3A
  IC50: > 8000 nM
MMAC-SF
  IC50: > 8000 nM
A3-KAW
  IC50: > 8000 nM
RPMI-2650
  IC50: > 8000 nM
MV4-11
  IC50: 1350 nM
OCI-AML2
  IC50: > 8000 nM
